What was measured:
[1] = target: T1, human Nav1.7 channels stably expressed in HEK 293 cells (Homo sapiens, UniProt Q15858); assay: PatchXpress 7000 automated patch-clamp, sodium current; format: cell-based; details: 22° C., read-out: potency for the Nav 1.7 sodium ion channel (as measured by PatchXpress)
T1 construct: expressed in transfected cells
In short: (§1)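 IC50 values came from Hill-equation fits of rundown-corrected inhibition. PatchXpress recordings at 22° C held cells 20 mV negative to V0.5 inact and applied 10 Hz trains of 30 ms steps to −20 mV (Nav1.7) or an 8000 ms prepulse 7 mV positive to V0.5 inact. […]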

[2] = target: T2, human Nav1.5 channels stably expressed in HEK 293 cells (Homo sapiens, UniProt Q14524); assay: as above; format: cell-based; details: selectivity over Nav1.5
T2 construct: expressed in transfected cells
In short: as §1

T2 sequence (Q14524 whole entry): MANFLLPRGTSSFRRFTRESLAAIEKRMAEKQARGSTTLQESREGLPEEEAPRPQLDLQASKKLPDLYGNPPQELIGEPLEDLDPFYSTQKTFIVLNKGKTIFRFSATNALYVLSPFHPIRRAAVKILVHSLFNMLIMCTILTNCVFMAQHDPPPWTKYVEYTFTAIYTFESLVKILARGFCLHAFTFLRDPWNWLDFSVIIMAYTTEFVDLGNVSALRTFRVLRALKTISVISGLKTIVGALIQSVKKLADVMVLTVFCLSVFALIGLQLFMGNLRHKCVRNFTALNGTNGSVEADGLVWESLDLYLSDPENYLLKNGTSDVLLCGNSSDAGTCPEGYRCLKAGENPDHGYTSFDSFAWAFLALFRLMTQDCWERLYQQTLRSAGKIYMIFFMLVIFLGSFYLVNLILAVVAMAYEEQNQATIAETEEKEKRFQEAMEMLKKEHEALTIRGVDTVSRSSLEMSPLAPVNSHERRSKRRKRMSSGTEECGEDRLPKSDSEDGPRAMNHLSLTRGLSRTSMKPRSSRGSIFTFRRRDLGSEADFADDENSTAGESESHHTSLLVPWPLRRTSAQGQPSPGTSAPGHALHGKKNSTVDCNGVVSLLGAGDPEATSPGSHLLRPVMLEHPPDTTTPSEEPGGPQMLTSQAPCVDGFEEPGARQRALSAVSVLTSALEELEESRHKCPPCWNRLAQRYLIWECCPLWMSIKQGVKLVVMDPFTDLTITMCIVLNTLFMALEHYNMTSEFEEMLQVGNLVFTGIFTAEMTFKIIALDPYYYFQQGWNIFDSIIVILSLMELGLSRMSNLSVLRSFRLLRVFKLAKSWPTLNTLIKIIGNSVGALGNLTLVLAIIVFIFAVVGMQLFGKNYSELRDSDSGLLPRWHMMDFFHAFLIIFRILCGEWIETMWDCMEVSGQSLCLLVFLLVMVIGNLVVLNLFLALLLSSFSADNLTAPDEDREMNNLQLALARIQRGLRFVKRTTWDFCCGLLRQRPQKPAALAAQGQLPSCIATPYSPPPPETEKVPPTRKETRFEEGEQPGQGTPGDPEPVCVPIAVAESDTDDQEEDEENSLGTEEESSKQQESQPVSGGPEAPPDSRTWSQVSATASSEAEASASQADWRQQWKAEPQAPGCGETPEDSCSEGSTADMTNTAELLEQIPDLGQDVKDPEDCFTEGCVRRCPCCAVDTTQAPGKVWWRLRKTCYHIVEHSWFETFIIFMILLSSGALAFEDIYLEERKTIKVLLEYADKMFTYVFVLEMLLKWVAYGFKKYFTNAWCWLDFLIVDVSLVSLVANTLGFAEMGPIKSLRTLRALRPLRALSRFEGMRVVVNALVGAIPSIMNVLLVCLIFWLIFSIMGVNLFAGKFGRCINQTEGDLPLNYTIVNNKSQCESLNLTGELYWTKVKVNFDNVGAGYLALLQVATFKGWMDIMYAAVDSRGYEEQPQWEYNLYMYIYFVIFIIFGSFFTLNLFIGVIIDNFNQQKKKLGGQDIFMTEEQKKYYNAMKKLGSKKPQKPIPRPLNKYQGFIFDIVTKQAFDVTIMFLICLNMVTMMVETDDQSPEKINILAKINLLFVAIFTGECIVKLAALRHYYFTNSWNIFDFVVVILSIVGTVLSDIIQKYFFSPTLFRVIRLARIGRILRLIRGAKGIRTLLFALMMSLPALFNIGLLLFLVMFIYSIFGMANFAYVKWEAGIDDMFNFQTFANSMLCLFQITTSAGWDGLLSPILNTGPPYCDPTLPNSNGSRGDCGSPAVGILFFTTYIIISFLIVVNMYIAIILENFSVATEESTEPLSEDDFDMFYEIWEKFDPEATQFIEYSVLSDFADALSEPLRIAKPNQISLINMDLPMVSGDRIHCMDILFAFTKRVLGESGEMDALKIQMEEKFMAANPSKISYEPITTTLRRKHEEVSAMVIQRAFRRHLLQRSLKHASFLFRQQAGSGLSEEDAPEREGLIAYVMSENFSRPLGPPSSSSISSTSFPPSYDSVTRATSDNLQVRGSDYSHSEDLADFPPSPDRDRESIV
T1 sequence (Q15858 whole entry): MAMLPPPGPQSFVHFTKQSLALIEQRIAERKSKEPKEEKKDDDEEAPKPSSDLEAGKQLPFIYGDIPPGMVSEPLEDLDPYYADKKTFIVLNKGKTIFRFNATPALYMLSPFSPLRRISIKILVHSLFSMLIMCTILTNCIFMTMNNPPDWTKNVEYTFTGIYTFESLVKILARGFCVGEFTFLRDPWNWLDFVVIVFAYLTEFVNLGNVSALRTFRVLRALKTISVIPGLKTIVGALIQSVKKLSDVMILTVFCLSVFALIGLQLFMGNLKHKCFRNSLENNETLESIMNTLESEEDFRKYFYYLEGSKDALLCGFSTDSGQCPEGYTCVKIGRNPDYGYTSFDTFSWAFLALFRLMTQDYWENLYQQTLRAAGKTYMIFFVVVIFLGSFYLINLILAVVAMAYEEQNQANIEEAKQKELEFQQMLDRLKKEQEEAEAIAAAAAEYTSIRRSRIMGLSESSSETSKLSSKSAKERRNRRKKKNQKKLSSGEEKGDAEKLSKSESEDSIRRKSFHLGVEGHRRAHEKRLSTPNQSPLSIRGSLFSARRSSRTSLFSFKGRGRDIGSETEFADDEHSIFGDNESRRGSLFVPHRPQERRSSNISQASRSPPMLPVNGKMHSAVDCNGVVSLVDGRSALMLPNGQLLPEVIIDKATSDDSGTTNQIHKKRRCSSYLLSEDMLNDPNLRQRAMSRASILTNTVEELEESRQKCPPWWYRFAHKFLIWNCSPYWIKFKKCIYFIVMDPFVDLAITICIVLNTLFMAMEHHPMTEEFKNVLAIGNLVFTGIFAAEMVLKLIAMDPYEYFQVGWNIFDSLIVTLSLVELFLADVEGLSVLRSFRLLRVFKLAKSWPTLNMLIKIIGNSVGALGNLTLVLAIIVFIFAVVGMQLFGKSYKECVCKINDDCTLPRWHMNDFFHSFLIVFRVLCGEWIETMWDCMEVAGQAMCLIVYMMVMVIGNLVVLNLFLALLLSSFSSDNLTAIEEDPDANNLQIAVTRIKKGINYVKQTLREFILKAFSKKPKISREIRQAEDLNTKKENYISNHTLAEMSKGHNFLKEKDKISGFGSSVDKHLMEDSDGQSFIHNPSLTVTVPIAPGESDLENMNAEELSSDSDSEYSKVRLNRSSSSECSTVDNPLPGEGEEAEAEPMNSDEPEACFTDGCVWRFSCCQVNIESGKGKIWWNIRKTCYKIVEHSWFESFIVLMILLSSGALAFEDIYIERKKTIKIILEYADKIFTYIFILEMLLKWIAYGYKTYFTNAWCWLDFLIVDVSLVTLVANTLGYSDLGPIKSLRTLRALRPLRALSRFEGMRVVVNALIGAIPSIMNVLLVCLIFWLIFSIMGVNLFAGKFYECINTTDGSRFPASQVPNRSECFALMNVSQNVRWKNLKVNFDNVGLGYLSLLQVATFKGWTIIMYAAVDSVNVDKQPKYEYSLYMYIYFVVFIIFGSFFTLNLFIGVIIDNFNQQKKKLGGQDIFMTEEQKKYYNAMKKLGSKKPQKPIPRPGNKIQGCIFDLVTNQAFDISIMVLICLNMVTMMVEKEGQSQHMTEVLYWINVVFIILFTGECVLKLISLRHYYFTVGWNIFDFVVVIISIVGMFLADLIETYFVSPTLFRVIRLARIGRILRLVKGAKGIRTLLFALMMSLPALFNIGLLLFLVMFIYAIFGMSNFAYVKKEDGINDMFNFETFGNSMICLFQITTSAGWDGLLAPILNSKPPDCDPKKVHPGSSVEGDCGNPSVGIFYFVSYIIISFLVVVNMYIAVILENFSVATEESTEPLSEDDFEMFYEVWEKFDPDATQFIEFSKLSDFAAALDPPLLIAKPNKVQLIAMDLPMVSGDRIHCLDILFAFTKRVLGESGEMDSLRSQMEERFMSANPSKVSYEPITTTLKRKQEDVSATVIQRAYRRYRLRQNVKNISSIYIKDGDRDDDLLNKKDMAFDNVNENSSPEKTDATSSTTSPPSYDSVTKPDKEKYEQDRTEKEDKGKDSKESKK

Row | SMILES | IC50 [1] | ratio of Nav 1.5:Nav 1.7 potency, determined by PatchXpress measurement [2]
1 | C[C@H](c1cccc2c1CN(S(C)(=O)=O)CC2)n1c(=O)oc2cc(S(=O)(=O)Nc3ncns3)c(F)cc21 [Compound 36-5, 5-fluoro-3-{(1R)-1-[2-(methylsulfonyl)-1,2,3,4-tetrahydroisoquinolin-8-yl]ethyl}-2-oxo-N-1,2,4-thiadiazol-5-yl-2,3-dihydro-1,3-benzoxazole-6-sulfonamide] | 155 nM | 35
2 | C[C@H](c1ccccc1C#CCNS(C)(=O)=O)n1c(=O)oc2cc(S(=O)(=O)Nc3ncns3)c(Cl)cc21 [Compound 36-6, 5-chloro-3-[(1R)-1-(2-{3-[(methylsulfonyl)amino]prop-1-yn-1-yl}phenyl)ethyl]-2-oxo-N-1,2,4-thiadiazol-5-yl-2,3-dihydro-1,3-benzoxazole-6-sulfonamide] | 121 nM | 175
3 | C[C@H](c1cccc2c1CC(NS(C)(=O)=O)CC2)n1c(=O)oc2cc(S(=O)(=O)Nc3ncns3)c(F)cc21 (stereo partly drawn) [Compound 36-7, 5-fluoro-3-[(1R)-1-{7-[(methylsulfonyl)amino]-5,6,7,8-tetrahydronaphthalen-1-yl)ethyl]-2-oxo-N-1,2,4-thiadiazol-5-yl-2,3-dihydro-1,3-benzoxazole-6-sulfonamide] | 27 nM | 107
4 | O=c1oc2cc(S(=O)(=O)Nc3ncns3)c(F)cc2n1[C@H](CCF)c1ccccc1 [Compound 37-3] | 132 nM | 39
5 | CCc1cc2c(cc1S(=O)(=O)Nc1ncns1)oc(=O)n2[C@H](C)c1ccccc1 [Compound 38-2, 5-ethyl-2-oxo-3-[(1R)-1-phenylethyl]-N-1,2,4-thiadiazol-5-yl-2,3-dihydro-1,3-benzoxazole-6-sulfonamide] | 94 nM | 17
6 | Cc1cc2c(cc1S(=O)(=O)Nc1ncns1)oc(=O)n2[C@H](C)c1ccccc1 [Compound 38-3] | 43 nM | 37
7 | Nc1ccc2c(c1)C(n1c(=O)oc3cc(S(=O)(=O)Nc4ncns4)c(F)cc31)CCC2 (stereo not drawn) [Compound 39-3] | 41 nM | 1196
8 | O=c1oc2cc(S(=O)(=O)Nc3ncns3)c(F)cc2n1C1CC2(COC2)Oc2ccccc21 (stereo not drawn) [Compound 39-4, 3-(3,4-dihydrospiro[chromene-2,3′-oxetan]-4-yl)-5-fluoro-2-oxo-N-1,2,4-thiadiazol-5-yl-2,3-dihydro-1,3-benzoxazole-6-sulfonamide] | 312 nM | 58
9 | Cc1cccc2c1CCCC2n1c(=O)oc2cc(S(=O)(=O)Nc3ncns3)c(F)cc21 (stereo not drawn) [Compound 39-5, 5-fluoro-3-(5-methyl-1,2,3,4-tetrahydronaphthalen-1-yl)-2-oxo-N-1,2,4-thiadiazol-5-yl-2,3-dihydro-1,3-benzoxazole-6-sulfonamide] | 261 nM | 14
10 | O=c1oc2cc(S(=O)(=O)Nc3ncns3)c(F)cc2n1C1CCOc2ccccc21 (stereo not drawn) [Compound 39-6, 3-(3,4-dihydro-2H-chromen-4-yl)-5-fluoro-2-oxo-N-1,2,4-thiadiazol-5-yl-2,3-dihydro-1,3-benzoxazole-6-sulfonamide] | 221 nM | 110
11 | CC1(C)CC(n2c(=O)oc3cc(S(=O)(=O)Nc4ncns4)c(F)cc32)c2ccccc2O1 (stereo not drawn) [Compound 39-7, 3-(2,2-dimethyl-3,4-dihydro-2H-chromen-4-yl)-5-fluoro-2-oxo-N-1,2,4-thiadiazol-5-yl-2,3-dihydro-1,3-benzoxazole-6-sulfonamide] | 218 nM | 137
12 | O=c1oc2cc(S(=O)(=O)Nc3ncns3)c(F)cc2n1C1COCc2ccccc21 (stereo not drawn) [Compound 39-8, 3-(3,4-dihydro-1H-isochromen-4-yl)-5-fluoro-2-oxo-N-1,2,4-thiadiazol-5-yl-2,3-dihydro-1,3-benzoxazole-6-sulfonamide] | 204 nM | 29
13 | O=C(c1ccccc1)N1CCC2(CC1)CC(n1c(=O)oc3cc(S(=O)(=O)Nc4ncns4)c(F)cc31)c1cc(F)ccc1O2 (stereo not drawn) [Compound 39-9, 5-fluoro-3-[6-fluoro-1′-(phenylcarbonyl)-3,4-dihydrospiro[chromene-2,4′-piperidin]-4-yl]-2-oxo-N-1,2,4-thiadiazol-5-yl-2,3-dihydro-1,3-benzoxazole-6-sulfonamide] | 168 nM | 54
14 | O=c1oc2cc(S(=O)(=O)Nc3ncns3)c(F)cc2n1C1CCCc2ccccc21 (stereo not drawn) [Compound 39-10, 5-fluoro-2-oxo-3-(1,2,3,4-tetrahydronaphthalen-1-yl)-N-1,2,4-thiadiazol-5-yl-2,3-dihydro-1,3-benzoxazole-6-sulfonamide] | 168 nM | 199
15 | O=c1oc2cc(S(=O)(=O)Nc3ncns3)c(F)cc2n1C1CC2(CCN(Cc3ccccc3)CC2)Oc2ccccc21 (stereo not drawn) [Compound 39-11, 3-(1′-benzyl-3,4-dihydrospiro[chromene-2,4′-piperidin]-4-yl)-5-fluoro-2-oxo-N-1,2,4-thiadiazol-5-yl-2,3-dihydro-1,3-benzoxazole-6-sulfonamide] | 166 nM | 114
16 | CC1(C)CCC(n2c(=O)oc3cc(S(=O)(=O)Nc4ncns4)c(F)cc32)c2ccccc21 (stereo not drawn) [Compound 39-12, 3-(4,4-dimethyl-1,2,3,4-tetrahydronaphthalen-1-yl)-5-fluoro-2-oxo-N-1,2,4-thiadiazol-5-yl-2,3-dihydro-1,3-benzoxazole-6-sulfonamide] | 159 nM | 38
17 | O=c1oc2cc(S(=O)(=O)Nc3ncns3)c(F)cc2n1C1CCOc2ccc(F)cc21 (stereo not drawn) [Compound 39-13, 5-fluoro-3-(6-fluoro-3,4-dihydro-2H-chromen-4-yl)-2-oxo-N-1,2,4-thiadiazol-5-yl-2,3-dihydro-1,3-benzoxazole-6-sulfonamide] | 112 nM | 295
18 | O=c1oc2cc(S(=O)(=O)Nc3ncns3)c(F)cc2n1[C@@H]1CC2(CCC2)Oc2ccccc21 [Compound 39-14, 3-[(4R)-3,4-dihydrospiro[chromene-2,1′-cyclobutan]-4-yl]-5-fluoro-2-oxo-N-1,2,4-thiadiazol-5-yl-2,3-dihydro-1,3-benzoxazole-6-sulfonamide] | 60 nM | 99
19 | O=c1oc2cc(S(=O)(=O)Nc3ncns3)c(F)cc2n1[C@@H]1C[C@@H](c2ccccc2)Oc2ccccc21 [Compound 39-15, 5-fluoro-2-oxo-3-[(2S,4R)-2-phenyl-3,4-dihydro-2H-chromen-4-yl]-N-1,2,4-thiadiazol-5-yl-2,3-dihydro-1,3-benzoxazole-6-sulfonamide] | 54 nM | 36
20 | O=c1oc2cc(S(=O)(=O)Nc3ncns3)c(F)cc2n1[C@H]1CC2(CCC2)Oc2ccccc21 [Compound 39-16, 3-[(4S)-3,4-dihydrospiro[chromene-2,1′-cyclobutan]-4-yl]-5-fluoro-2-oxo-N-1,2,4-thiadiazol-5-yl-2,3-dihydro-1,3-benzoxazole-6-sulfonamide] | 53 nM | 149
21 | O=c1oc2cc(S(=O)(=O)Nc3ncns3)c(F)cc2n1[C@H]1CC2(CCC2)Oc2ccc(F)cc21 [Compound 39-17, 5-fluoro-3-[(4S)-6-fluoro-3,4-dihydrospiro[chromene-2,1′-cyclobutan]-4-yl]-2-oxo-N-1,2,4-thiadiazol-5-yl-2,3-dihydro-1,3-benzoxazole-6-sulfonamide] | 53 nM | 115
22 | Cc1csc(NS(=O)(=O)c2ccc3c(c2)oc(=O)n3C(C)c2ccccc2)n1 (stereo not drawn) [Compound 40-5, N-(4-methyl-1,3-thiazol-2-yl)-2-oxo-3-(1-phenylethyl)-2,3-dihydro-1,3-benzoxazole-6-sulfonamide] | 1190 nM | 25
23 | C[C@H](c1ccccc1)n1c(=O)oc2cc(S(=O)(=O)Nc3nccs3)ccc21 [Compound 41-4, (R)-2-oxo-3-(1-phenylethyl)-N-(thiazol-2-yl)-2,3-dihydrobenzo[d]oxazole-6-sulfonamide] | 161 nM | 187
24 | COC(=O)[C@H](c1ccccc1)n1c(=O)oc2cc(S(=O)(=O)Nc3nccs3)ccc21 [Compound 41-6, methyl (2S)-[2-oxo-6-(1,3-thiazol-2-ylsulfamoyl)-1,3-benzoxazol-3(2H)-yl](phenyl)ethanoate] | 553 nM | 54
25 | C[C@H](c1cccc2c1CNCC2)n1c(=O)oc2cc(S(=O)(=O)Nc3nccs3)ccc21 [Compound 42-1, (R)-2-oxo-3-(1-(1,2,3,4-tetrahydroisoquinolin-8-yl)ethyl)-N-(thiazol-2-yl)-2,3-dihydrobenzo[d]oxazole-6-sulfonamide] | 30 nM | 1017
26 | C[C@H](c1ccccc1)n1c(=O)oc2cc(S(=O)(=O)Nc3nccs3)c(F)cc21 [Compound 43-2, (R)-5-fluoro-2-oxo-3-(1-phenylethyl)-N-(thiazol-2-yl)-2,3-dihydrobenzo[d]oxazole-6-sulfonamide] | 68 nM | 88
27 | O=c1oc2cc(S(=O)(=O)Nc3nccs3)c(F)cc2n1C1CCCc2ccncc21 (stereo not drawn) [Compound 43-3, 5-fluoro-2-oxo-3-(5,6,7,8-tetrahydroisoquinolin-8-yl)-N-1,3-thiazol-2-yl-2,3-dihydro-1,3-benzoxazole-6-sulfonamide] | 550 nM | 91

Reference: patent publication US9273040B2 (Merck Sharp & Dohme Corp., priority 2011, dated 2016)
